Key:
Format in all cases: cell-based
[1] = test system: Molt-4 cells; assay: Thiazolyl blue cell proliferation assay in Molt-4 cells; conditions: Homo sapiens, Molt-4 acute lymphocytic leukemia cells, 72 hours, read-out: IC50 (nM) for inhibiting the proliferation of Molt-4 cells
Source text: (§1) The cell lines RS4;11 (human acute lymphocytic leukemia cells), Molt-4 cells (human acute lymphocytic leukemia cells), MV4;11 (human myeloid monocytic leukemia cells), and Light II cells were commercially available or purchased from ATCC (American Type Culture Collection) and routinely cultured according to instructions.
3) Study on the proliferation inhibition effects induced by the compounds of the present disclosure designed based on ABT199/263 against BCL-XL-dependent Molt-4 cells:
(§2) The specific steps were as follows: Molt-4 cells were seeded at a density of 2×10^4 cells/well in 180 μL of serum-containing RPMI 1640 culture medium. DT2216 and the compounds of the present disclosure were added to the cell suspension at corresponding concentration gradients. DT2216 and DMSO were used as positive and vehicle control, respectively. The positive control and negative control were treated with the same treatment method as the compounds of the present disclosure. After treating the cells with the compounds of the present disclosure for 72 hours, thiazole blue solution (5 mg/mL) was added at 20 μL/well to the cell suspension, followed by incubation for 3 hours at 37° C. in an incubator with 5% CO2. Then, triple solution (0.1 g/mL SDS, 5% isopropyl alcohol, 10 mM hydrochloric acid) was added, followed by incubation for 4-6 hours at 37° C. in an incubator with 5% CO2. After confirming that all the crystal violets were dissolved under inverted biological microscopy, the absorbance was measured at 490 nm using an Epoch microplate reader (Biotek Corporation). The growth inhibition of the compounds of the present disclosure on the cells was plotted by GraphPad Prism 8 software, and the IC50 values of the compounds of the present disclosure were calculated therefrom. The experiment had 3 replicates per group and was repeated at least three times.

[2] = test system: RS4;11 cells; assay: Thiazolyl blue cell proliferation assay in RS4;11 cells; conditions: Homo sapiens, RS4;11 acute lymphoblastic leukemia cells, 48 hours, read-out: IC50 (nM) for inhibiting the proliferation of RS4;11 cells
Source text: as §1
1) Study on the proliferation inhibition effects induced by the compounds of the present disclosure designed based on ABT199/263 against BCL-XL-dependent RS4;11 cells:
as §2, with “RS4;11” for “Molt-4”, “3×10^4” for “2×10^4”, “90” for “180”, “RPMI-1640” for “RPMI 1640”, “48” for “72”, “10” for “20”
We conducted dose-dependent experiments on the designed and synthesized compounds of the present disclosure in RS4;11 cells, which are highly sensitive to BCL-XL inhibitors. The cells were treated with 7 different concentrations (starting at the highest concentration of 1000 nM or 100 nM; 10-fold serial dilutions) of the compounds for 48 hours, and then tested using the thiazolyl blue cell proliferation assay.

[3] = test system: MV4;11 cells; assay: Thiazolyl blue cell proliferation assay in MV4;11 cells; conditions: Homo sapiens, MV4;11 myeloid monocytic leukemia cells, 48 hours, read-out: IC50 (nM) for inhibiting the proliferation of MV4;11 cells
Source text: as §1
2) Study on the proliferation inhibition effects induced by the compounds of the present disclosure designed based on ABT199/263 against BCL-XL-dependent MV4;11 cells:
as §2, with “MV4;11” for “Molt-4”, “90” for “180”, “IMDM” for “RPMI 1640”, “48” for “72”, “10 µL/well” for “20 μL/well”

| Compound | IC50 [1] [nM] | IC50 [2] [nM] | IC50 [3] [nM] |
| --- | --- | --- | --- |
| CC1(C)CCC(CN2CCN(c3ccc(C(=O)NS(=O)(=O)c4ccc(NC[C@H]5CC[C@H](N6CCN(Cc7ccc8c(c7)C(=O)N(C7CCC(=O)NC7=O)C8=O)CC6)CC5)c([N+](=O)[O-])c4)c(Oc4cnc5[nH]ccc5c4)c3)CC2)=C(c2ccc(Cl)cc2)C1 (relative stereo) [BCL-03188, 2-((1H-pyrrolo[2,3-b]pyridin-5-yl)oxy)-4-(4-((4′-chloro-5,5-dimethyl-3,4,5,6-tetrahydro-[1,1′-biphenyl]-2-yl)methyl)piperazin-1-yl)-N-((4-((((trans)-4-(4-((2-(2,6-dioxopiperidin-3-yl)-1,3-dioxoisoindolin-5-yl)methyl)piperazin-1-yl)cyclohexyl)methyl)amino)-3-nitrophenyl)sulfonyl)benzamide] | < 10 | < 20 | < 20 |
| C[C@H]1CN([C@H]2CC[C@H](CNc3ccc(S(=O)(=O)NC(=O)c4ccc(N5CCN(CC6=C(c7ccc(Cl)cc7)CC(C)(C)CC6)CC5)cc4Oc4cnc5[nH]ccc5c4)cc3[N+](=O)[O-])CC2)CCN1Cc1cc(Br)c2c(c1)C(=O)N(C1CCC(=O)NC1=O)C2 (stereo partly drawn) [BCL-03170, 2-((1H-pyrrolo[2,3-b]pyridin-5-yl)oxy)-N-((4-((((trans)-4-((3S)-4-((7-bromo-2-(2,6-dioxopiperidin-3-yl)-3-oxoisoindolin-5-yl)methyl)-3-methylpiperazin-1-yl)cyclohexyl)methyl)amino)-3-nitrophenyl)sulfonyl)-4-(4-((4′-chloro-5,5-dimethyl-3,4,5,6-tetrahydro-[1,1′-biphenyl]-2-yl)methyl)piperazin-1-yl)benzamide] | < 10 |  |  |
| C[C@@H]1CN([C@H]2CC[C@@H](CNc3ccc(S(=O)(=O)NC(=O)c4ccc(N5CCN(CC6=C(c7ccc(Cl)cc7)CC(C)(C)CC6)CC5)cc4Oc4cnc5[nH]ccc5c4)cc3[N+](=O)[O-])CC2)CCN1Cc1cc(Br)c2c(c1)C(=O)N(C1CCC(=O)NC1=O)C2 (stereo partly drawn) [BCL-03171, 2-((1H-pyrrolo[2,3-b]pyridin-5-yl)oxy)-N-((4-((((cis)-4-((3R)-4-((7-bromo-2-(2,6-dioxopiperidin-3-yl)-3-oxoisoindolin-5-yl)methyl)-3-methylpiperazin-1-yl)cyclohexyl)methyl)amino)-3-nitrophenyl)sulfonyl)-4-(4-((4′-chloro-5,5-dimethyl-3,4,5,6-tetrahydro-[1,1′-biphenyl]-2-yl)methyl)piperazin-1-yl)benzamide] | < 10 |  |  |
| C[C@@H]1CN([C@H]2CC[C@H](CNc3ccc(S(=O)(=O)NC(=O)c4ccc(N5CCN(CC6=C(c7ccc(Cl)cc7)CC(C)(C)CC6)CC5)cc4Oc4cnc5[nH]ccc5c4)cc3[N+](=O)[O-])CC2)CCN1Cc1cc(Br)c2c(c1)C(=O)N(C1CCC(=O)NC1=O)C2 (stereo partly drawn) [BCL-03172, 2-((1H-pyrrolo[2,3-b]pyridin-5-yl)oxy)-N-((4-((((trans)-4-((3R)-4-((7-bromo-2-(2,6-dioxopiperidin-3-yl)-3-oxoisoindolin-5-yl)methyl)-3-methylpiperazin-1-yl)cyclohexyl)methyl)amino)-3-nitrophenyl)sulfonyl)-4-(4-((4′-chloro-5,5-dimethyl-3,4,5,6-tetrahydro-[1,1′-biphenyl]-2-yl)methyl)piperazin-1-yl)benzamide] | < 10 |  |  |
| CC1(C)CCC(c2ccc(Cl)cc2)=C(CN2CCN(c3ccc(C(=O)NS(=O)(=O)c4ccc(N[C@H](CCN5CCN(Cc6cc(Br)c7c(c6)C(=O)N(C6CCC(=O)NC6=O)C7)CC5)CSc5ccccc5)c(S(=O)(=O)C(F)(F)F)c4)cc3)CC2)C1 (stereo partly drawn) [BCL-03178, N-((4-(((2R)-4-(4-((7-bromo-2-(2,6-dioxopiperidin-3-yl)-3-oxoisoindolin-5-yl)methyl)piperazin-1-yl)-1-(phenylthio)butan-2-yl)amino)-3-((trifluoromethyl)sulfonyl)phenyl)sulfonyl)-4-(4-((4′-chloro-4,4-dimethyl-3,4,5,6-tetrahydro-[1,1′-biphenyl]-2-yl)methyl)piperazin-1-yl)benzamide] | < 10 |  |  |
| CC1(C)CCC(CN2CCN(c3ccc(C(=O)NS(=O)(=O)c4ccc(NC[C@H]5CC[C@H](N6CCN(Cc7ccc8c(c7)CN(C7CCC(=O)NC7=O)C8=O)CC6)CC5)c(S(=O)(=O)C(F)(F)F)c4)c(Oc4cnc5[nH]ccc5c4)c3)CC2)=C(c2ccc(Cl)cc2)C1 (stereo partly drawn) [BCL-03179, 2-((1H-pyrrolo[2,3-b]pyridin-5-yl)oxy)-4-(4-((4′-chloro-5,5-dimethyl-3,4,5,6-tetrahydro-[1,1′-biphenyl]-2-yl)methyl)piperazin-1-yl)-N-((4-((((trans)-4-(4-((2-(2,6-dioxopiperidin-3-yl)-1-oxoisoindolin-5-yl)methyl)piperazin-1-yl)cyclohexyl)methyl)amino)-3-((trifluoromethyl)sulfonyl)phenyl)sulfonyl)benzamide] | < 10 | < 20 | < 20 |
| CC1(C)CCC(c2ccc(Cl)cc2)=C(CN2CCN(c3ccc(C(=O)NS(=O)(=O)c4ccc(NC[C@H]5CC[C@H](N6CCN(Cc7ccc8c(c7)CN(C7CCC(=O)NC7=O)C8=O)CC6)CC5)c(S(=O)(=O)C(F)(F)F)c4)cc3)CC2)C1 (stereo partly drawn) [BCL-03180, 4-(4-((4′-chloro-4,4-dimethyl-3,4,5,6-tetrahydro-[1,1′-biphenyl]-2-yl)methyl)piperazin-1-yl)-N-((4-((((trans)-4-(4-((2-(2,6-dioxopiperidin-3-yl)-1-oxoisoindolin-5-yl)methyl)piperazin-1-yl)cyclohexyl)methyl)amino)-3-((trifluoromethyl)sulfonyl)phenyl)sulfonyl)benzamide] |  | < 20 |  |
| CC1(C)CCC(c2ccc(Cl)cc2)=C(CN2CCN(c3ccc(C(=O)NS(=O)(=O)c4ccc(NC[C@H]5CC[C@H](N6CCN(Cc7ccc8c(c7)CN(C7CCC(=O)NC7=O)C8=O)CC6)CC5)c([N+](=O)[O-])c4)cc3)CC2)C1 (stereo partly drawn) [BCL-03181, 4-(4-((4′-chloro-4,4-dimethyl-3,4,5,6-tetrahydro-[1,1′-biphenyl]-2-yl)methyl)piperazin-1-yl)-N-((4-((((trans)-4-(4-((2-(2,6-dioxopiperidin-3-yl)-1-oxoisoindolin-5-yl)methyl)piperazin-1-yl)cyclohexyl)methyl)amino)-3-nitrophenyl)sulfonyl)benzamide] |  | < 20 |  |

Reference: US20250154146A1, “PROTEIN DEGRADERS DEVELOPED ON BASIS OF BCL-2 FAMILY PROTEIN LIGAND COMPOUNDS AND USE THEREOF” (ShanghaiTech University, priority 2022, published 2025)
